Assay results from paper PMC9370761, “Anti-Inflammatory Effects of Auranamide and Patriscabratine—Mechanisms and In Silico Studies” (Molecules, 2022).

Experiments:
HO-1 = HO-1 ELISA, nuclear extract of RAW 264.7 cells; type: cell-based, murine; settings: 10 μM, vs negative control
Experimental: (§1) The NRF2 activation is associated with increased NQO1 activity and an increased concentration of NRF2 and HO-1 in the nucleus. The protective role of NRF2/HO-1 in inflammatory diseases is well documented. Therefore, the NRF2 and HO-1 levels in nuclear extracts of the RAW 264.7 cells were determined using ELISA kits and expressed as fold changes with reference to the negative control. The effect of test compounds on NQO1 activity was determined using the reported method in murine hepatoma cells (Hepa-1c1c7). Dimethyl fumarate was used as a positive control, and 0.1% DMSO was used as a negative control. […]
(§2) The anti-inflammatory activity of the test compounds was assessed in E. coli lipopolysaccharide (LPSEc)-induced inflammation in RAW 264.7 cells. […] The levels of NO production and pro-inflammatory cytokines (IL-1β, IL-6, IFN-γ and TNF-α) were determined using the supernatant solution. […]
(§3) The COX-2 level was estimated in the cytoplasmic extract, whereas NF-κB p65, NRF-2 and HO-1 levels were estimated in nuclear extract. […] The protein concentration in the extracts was determined using Bradford’s reagent. […] The levels were measured in triplicate. The absorbance was measured using a Spectramax M3 microplate reader (Molecular Devices, LLC., San Jose, CA 95134, USA). […]

[1] = Metabolic stability in rat liver microsomes; type: in vitro ADME; settings: 37 °C; for Clint: 0.5 µM; for half-life at 0.5 µM: read-out: Half-life (T1/2)
Experimental: (§4) Metabolic stability is an important parameter in the drug discovery pipeline. The metabolic stability of test compounds was evaluated in vitro using human, rat and mouse liver microsomes. The metabolic equation below determines the test compounds’ half-life (T1/2) and intrinsic clearance (Clint). Compound+ NADPH + H^++ O2 → oxidized analyte + NADP^++ H2O
(§5) The metabolic stability of the test compounds in human, rat, and mouse liver microsomes was determined using the method described in our previous work. Five microlitres of auranamide or patriscabratine (0.5 µM) were incubated in a reaction mixture at 37 °C for 0, 3, 6, 15, 30, 45 and 60 min. The concentration of test compounds in the reaction mixture was quantified using Agilent 1290 coupled with Q-TOF. The experiment was carried out in triplicate. The concentration versus time plot calculated the elimination rate constant (Kel). The below formulae were used to calculate the intrinsic clearance (Clint) and half-life (T1/2). The results are expressed as mean ± standard deviation from three experiments. Clint= Kel/0.5 ×52.5 T1/2= 0.693/Kel

[2] = Metabolic stability in human liver microsomes; type: in vitro ADME; settings: 37 °C; for Clint: 0.5 µM; for half-life at 0.5 µM: read-out: Half-life (T1/2)
Experimental: as §4, §5

Hepa-1c1c7 cells = assay: MTT cytotoxicity on Hepa-1c1c7 cells; type: cell-based, murine; settings: MTT assay, 24 h
Experimental: (§6) The cytotoxicity of the test compounds on RAW 264.7 and Hepa-1c1c7 cells was assessed using Vybrant® MTT Cell Proliferation Assay Kit following the manufacturer’s protocol. The cells were seeded at 5 × 10^5 cells/well and incubated for 24 h. Then, various concentrations (100 to 0.01 μM) of the test compounds were added and incubated for a further 24 h. The cell supernatant solution was replaced with the MTT assay solution and incubated for 4 h. The formazan crystals were dissolved in DMSO, and the optical density (OD) of the solution was measured at 570 nm (reference wavelength 630 nm) using Spectramax M3 microplate reader (Molecular Devices, LLC., San Jose, CA 95134, USA). The cell viability was calculated using the following formula, and the results are presented as mean ± SD. Percent cell viability %=ODtreated cells−ODblank/ODuntreated cells− ODblank×100%

NQO1 = NQO1 activity, Prochaska microtiter plate bioassay in Hepa-1c1c7 cells; type: cell-based, murine; settings: 48 h
Experimental: The NRF2 activation is associated with increased NQO1 activity and an increased concentration of NRF2 and HO-1 in the nucleus. The protective role of NRF2/HO-1 in inflammatory diseases is well documented. Therefore, the NRF2 and HO-1 levels in nuclear extracts of the RAW 264.7 cells were determined using ELISA kits and expressed as fold changes with reference to the negative control. The effect of test compounds on NQO1 activity was determined using the reported method in murine hepatoma cells (Hepa-1c1c7). Dimethyl fumarate was used as a positive control, and 0.1% DMSO was used as a negative control. […] The CD value (concentration of test compound to double the NQO1 activity) of auranamide was 6.81 ± 0.18 μM, while for patriscabratine it was 4.28 ± 0.17 μM.
The “Prochaska” Microtiter Plate Bioassay was used to measure the NQO1 activity in hepatoma cells (Hepa-1c1c7). The cells (5 × 10^5 per well) were seeded and incubated with either auranamide or patriscabratine (10, 1, 0.1, 0.01, and 0.001 µM) or a reference drug (dimethyl fumarate, 10 μM) for 48 h. […] The protein concentration was determined using Bradford’s reagent. […] The optical density of the solution was determined at 610 nm using a Spectramax M3 microplate reader (Molecular Devices, LLC., San Jose, CA 95134, USA), and the values were normalized to the total protein content.

NRF2 = NRF2 ELISA, nuclear extract of RAW 264.7 cells; type: cell-based, murine; settings: 10 μM, vs negative control
Experimental: as §1, §2, §3

NF-κB p65 = NF-κB p65 ELISA, nuclear extract of LPSEc-stimulated RAW 264.7 cells; type: cell-based, murine; settings: 10 μM; LPSEc control 8.40 ± 0.09
Experimental: (§7) The anti-inflammatory activity of the test compounds was assessed in E. coli lipopolysaccharide (LPSEc)-induced inflammation in RAW 264.7 cells. Cells (5 × 10^5 cells/well) were incubated for 24 h in a 24-well plate. Then, the cells were challenged with LPSEc (100 ng/mL) for 4 h. The test compounds (10, 1, 0.1, 0.01 and 0.001 µM) or positive control (dimethyl fumarate, 10 μM) were then added and incubated for 24 h. The levels of NO production and pro-inflammatory cytokines (IL-1β, IL-6, IFN-γ and TNF-α) were determined using the supernatant solution. The cell pellet was used to measure the levels of COX-2, NF-κB p65, NRF2, and HO-1.
(§8) The COX-2 level was estimated in the cytoplasmic extract, whereas NF-κB p65, NRF-2 and HO-1 levels were estimated in nuclear extract. The nuclear extraction kit was used to separate the cytoplasm from the nucleus following the manufacturer’s instructions. The cell pellet was incubated in 100 µL of pre-extraction buffer on ice for 10 min, vortexed, and centrifuged. The supernatant cytoplasmic extract was collected. […] The protein concentration in the extracts was determined using Bradford’s reagent. […] The levels were measured in triplicate. The absorbance was measured using a Spectramax M3 microplate reader (Molecular Devices, LLC., San Jose, CA 95134, USA). […]

TNF-α = TNF-α ELISA in LPSEc challenged RAW 264.7 cells; type: cell-based, murine; settings: 10 μM; vs untreated cells; LPSEc alone 4.33 ± 0.17
Experimental: as §7
(§9) Single-Analyte ELISArray kits were used to quantify the pro-inflammatory cytokines (IL-1β, IL-6, IFN-γ and TNF-α) in the cell supernatant following the manufacturer’s instructions. The standard protein (50 μL) or test sample solutions (50 μL) were added to a well (in duplicate) and incubated for 2 h at room temperature. The contents in the well were washed with wash buffer, and then 100 µL of biotinylated detection antibody solution was added and incubated for 1 h at room temperature. […] The optical density was measured at 450/570 nm using a Spectramax microplate reader M3 (Molecular Devices, LLC., San Jose, CA 95134, USA). The levels of pro-inflammatory cytokines (in pg/mL) in test samples were calculated using the standard curve. […]

[3] = tested on: nitric oxide (NO) production; assay: NO production (Griess assay) in LPSEc-stimulated RAW264.7 cells; type: cell-based, murine; settings: for reduced the NO production by: 10 μM, LPSEc-stimulated NO = 100%; for IC50: Mus musculus, 100 ng/mL LPSEc, RAW264.7, 24 h, read-out: IC50 (concentration required to reduce the NO production by 50%)
Experimental: The anti-inflammatory activity of the compounds was tested using Escherichia coli lipopolysaccharide (LPSEc) stimulated RAW264.7 cells. Nitric oxide (NO) is a classical marker used to measure inflammation. The Griess assay was used to determine NO production. The cells were stimulated with 100 ng/mL LPSEc and the NO produced was considered to be at 100%. The anti-inflammatory effect of the compounds was assessed by adding the compounds (10, 1, 0.1, 0.01, and 0.001 µM) to the LPSEc stimulated cells. The efficacy of the compounds was assessed by calculating their ability to reduce the LPSEc stimulated NO production. Dimethyl fumarate was used as a positive control, and 0.1% DMSO was used as a negative control. […] The anti-inflammatory effect was not observed at concentrations of less than 0.1 μM.
as §7
LPSEc activates inducible nitric oxide synthase (iNOS) in RAW 264.7 cells and produces nitric oxide (NO), an important mediator of inflammation. The NO content in the supernatant solution was measured using the Griess assay following the manufacturer’s instructions. The optical density (OD) was measured at 540 nm using a Spectramax M3 microplate reader (Molecular Devices, LLC., San Jose, CA 95134, USA). The formula provided below was used to calculate the percentage of NO production. Percent NO production=ODtreated cells− ODblank/ODuntreated cells− ODblank×100%
The activity of the test compounds was tested in triplicate on each plate. The results are presented as mean ± SD. Treatment was performed with either LPSEc alone or LPSEc and test compounds were designated as treated cells. RAW264.7 cells treated with vehicle (0.1% DMSO) were designated as untreated cells.

IL-6 = IL-6 ELISA in LPSEc challenged RAW 264.7 cells; type: cell-based, murine; settings: 10 μM; vs untreated cells; LPSEc alone 6.91 ± 0.05
Experimental: as §7, §9

COX-2 = COX-2 ELISA, cytoplasmic extract of LPSEc-stimulated RAW 264.7 cells; type: cell-based, murine; settings: 10 μM; LPSEc control 8.09 ± 0.08
Experimental: as §7, §8

[4] = Metabolic stability in mouse liver microsomes; type: in vitro ADME; settings: 37 °C; for Clint: 0.5 µM; for half-life at 0.5 µM: read-out: Half-life (T1/2)
Experimental: as §4, §5

IFN-γ = IFN-γ ELISA in LPSEc challenged RAW 264.7 cells; type: cell-based, murine; settings: 10 μM; vs untreated cells; LPSEc alone 8.62 ± 0.26
Experimental: as §7, §9

RAW264.7 cells = assay: MTT cytotoxicity on RAW264.7 cells; type: cell-based, murine; settings: MTT assay, 24 h, RAW 264.7 cells
Experimental: as §6

IL-1β = IL-1β ELISA in LPSEc challenged RAW 264.7 cells; type: cell-based, murine; settings: 10 μM; vs untreated cells; LPSEc alone 4.56 ± 0.13
Experimental: as §7, §9

Work on O=C(N[C@@H](COC(=O)[C@H](Cc1ccccc1)NC(=O)c1ccccc1)Cc1ccccc1)c1ccccc1 [Auranamide] yielded an HO-1 upregulation (HO-1) of 1.74 ± 0.09 fold, a Clint [1] of 17.22 ± 0.46 mL/min/g liver and a half-life at 0.5 µM [1] of 4.23 min. The Clint [2] was 10.18 ± 0.35 mL/min/g liver, the half-life at 0.5 µM [2] was 7.14 min and the “concentrations found to be cytotoxic” value (Hepa-1c1c7 cells) was “higher than 10 µM”. The “CD value (concentration of test compound to double the NQO1 activity)” value (NQO1) was 6.81 ± 0.18 µM, the NRF2 upregulation (NRF2) was 2.66 ± 0.16 fold and the “NF-κB p65 fold change” value (NF-κB p65) was 2.13 ± 0.20 fold changes. The TNF-α fold change (TNF-α) was 2.42 ± 0.24 fold change, the “reduced the NO production by” value [3] was 33.22% and the IC50 [3] was 1220 ± 950 nM. It also gave an IL-6 fold change (IL-6) of 2.85 ± 0.31 fold change, a COX-2 fold change (COX-2) of 2.53 ± 0.25 fold changes and a Clint [4] of 16.18 ± 0.43 mL/min/g liver. The half-life at 0.5 µM [4] was 4.5 min, the IFN-γ fold change (IFN-γ) was 4.06 ± 0.19 fold change and the “concentrations found to be cytotoxic” value (RAW264.7 cells) was “higher than 10 µM”. The IL-1β fold change (IL-1β) was 2.05 ± 0.16 fold change.

Molecule CC(=O)NC(COC(=O)C(Cc1ccccc1)NC(=O)c1ccccc1)Cc1ccccc1 (centres unmarked) [Patriscabratine] has an HO-1 upregulation (HO-1) of 1.83 ± 0.07 fold, a Clint [1] of 18.53 ± 0.56 mL/min/g liver and a half-life at 0.5 µM [1] of 3.93 min. For the same molecule, the Clint [2] was 13.27 ± 0.42 mL/min/g liver, the half-life at 0.5 µM [2] was 5.48 min and the “concentrations found to be cytotoxic” value (Hepa-1c1c7 cells) was “higher than 10 µM”. The “CD value (concentration of test compound to double the NQO1 activity)” value (NQO1) was 4.28 ± 0.17 µM, the NRF2 upregulation (NRF2) was 2.37 ± 0.06 fold and the “NF-κB p65 fold change” value (NF-κB p65) was 2.25 ± 0.27 fold changes. For the same molecule, the TNF-α fold change (TNF-α) was 2.53 ± 0.18 fold change, the “reduced the NO production by” value [3] was 30.84% and the IC50 [3] was 1850 ± 930 nM. It also gave an IL-6 fold change (IL-6) of 2.51 ± 0.38 fold change, a COX-2 fold change (COX-2) of 2.17 ± 0.31 fold changes and a Clint [4] of 18.64 ± 0.51 mL/min/g liver. The half-life at 0.5 µM [4] was 3.9 min, the IFN-γ fold change (IFN-γ) was 4.15 ± 0.21 fold change and the “concentrations found to be cytotoxic” value (RAW264.7 cells) was “higher than 10 µM”. It also gave an IL-1β fold change (IL-1β) of 1.96 ± 0.12 fold change.
